{"source": "patent EP0912534B1", "about": "“MUSCARINIC ANTAGONISTS” (SCHERING CORPORATION, priority 1996, dated 1998)", "key": {"[1]": {"target": "T1, cloned human m1 muscarinic receptor (Homo sapiens, UniProt P11229)", "T1 sequence (P11229 1-460)": "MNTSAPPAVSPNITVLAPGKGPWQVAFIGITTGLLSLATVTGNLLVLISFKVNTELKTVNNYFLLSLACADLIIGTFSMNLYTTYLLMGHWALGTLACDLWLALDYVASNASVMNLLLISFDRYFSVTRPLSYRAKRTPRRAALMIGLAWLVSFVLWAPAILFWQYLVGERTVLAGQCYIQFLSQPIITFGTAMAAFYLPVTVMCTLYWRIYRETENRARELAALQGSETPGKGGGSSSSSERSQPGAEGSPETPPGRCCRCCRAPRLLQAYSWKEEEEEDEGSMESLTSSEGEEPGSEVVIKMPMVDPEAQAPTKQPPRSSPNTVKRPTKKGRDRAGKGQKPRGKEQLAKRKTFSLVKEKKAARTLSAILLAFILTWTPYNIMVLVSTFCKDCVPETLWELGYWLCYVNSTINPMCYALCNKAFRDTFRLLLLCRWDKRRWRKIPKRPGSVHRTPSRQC", "test": "Muscarinic binding activity (3H-QNB displacement), m1", "conditions": "Ki m1, membranes of transfected CHO cells"}, "[2]": {"target": "T2, cloned human m2 muscarinic receptor (Homo sapiens, UniProt P08172)", "T2 sequence (P08172 1-466)": "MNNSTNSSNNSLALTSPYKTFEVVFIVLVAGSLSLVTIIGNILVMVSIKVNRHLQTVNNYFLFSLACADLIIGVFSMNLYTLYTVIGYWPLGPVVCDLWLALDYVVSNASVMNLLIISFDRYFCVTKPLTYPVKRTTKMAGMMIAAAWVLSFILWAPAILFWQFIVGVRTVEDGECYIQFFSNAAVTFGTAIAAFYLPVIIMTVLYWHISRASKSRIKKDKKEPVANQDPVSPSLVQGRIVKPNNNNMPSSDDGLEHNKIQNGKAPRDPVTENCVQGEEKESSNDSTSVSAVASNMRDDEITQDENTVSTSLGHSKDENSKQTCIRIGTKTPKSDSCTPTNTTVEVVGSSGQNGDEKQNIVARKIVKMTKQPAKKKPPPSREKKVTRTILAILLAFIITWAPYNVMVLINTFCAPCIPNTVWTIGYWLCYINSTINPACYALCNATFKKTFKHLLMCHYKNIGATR", "test": "Muscarinic binding activity (3H-QNB displacement), m2", "conditions": "Ki m2, membranes of transfected CHO cells"}, "[3]": {"target": "T3, cloned human m4 muscarinic receptor (Homo sapiens, UniProt P08173)", "T3 sequence (P08173 1-479)": "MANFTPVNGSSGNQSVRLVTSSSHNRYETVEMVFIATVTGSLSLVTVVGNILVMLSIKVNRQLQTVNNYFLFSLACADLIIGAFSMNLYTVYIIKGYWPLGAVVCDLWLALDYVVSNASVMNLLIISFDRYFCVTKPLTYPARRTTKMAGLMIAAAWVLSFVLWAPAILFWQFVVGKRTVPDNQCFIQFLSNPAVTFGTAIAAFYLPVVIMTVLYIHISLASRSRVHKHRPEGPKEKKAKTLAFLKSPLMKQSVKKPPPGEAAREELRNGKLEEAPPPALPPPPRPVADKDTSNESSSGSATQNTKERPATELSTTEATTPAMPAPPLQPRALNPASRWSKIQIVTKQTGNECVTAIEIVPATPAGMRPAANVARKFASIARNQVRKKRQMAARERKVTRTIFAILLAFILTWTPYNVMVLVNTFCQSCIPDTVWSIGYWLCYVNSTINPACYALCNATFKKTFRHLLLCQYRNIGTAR", "test": "Muscarinic binding activity (3H-QNB displacement), m4", "conditions": "Ki m4, membranes of transfected CHO cells"}, "[4]": {"test_system": "Release of Acetyl Choline (ACh) from Striatum", "test": "Microdialysis: release of acetylcholine from striatum of conscious rats", "format": "in vivo, male Sprague-Dawley Rats", "conditions": "10 mg/kg peritoneal, 3 rats, Isomer B", "protocol": "The skull was exposed and drilled through to the dura at a point 0.2 mm anterior and 3.0 mm lateral to the bregma. At these coordinates, a guide cannula was positioned at the outer edge of the dura through the drilled opening, lowered perpendicularly to a depth of 2.5 mm, and permanently secured with dental cement to bone screws. Following the surgery, rats were given ampicillin (40 mg/kg, ip) and individually housed in modified cages. A recovery period of approximately 3 to 7 days was allowed before the microdialysis procedure was undertaken. • Microdialysis: All of the equipment and instrumentation used to conduct in vivo microdialysis was obtained from Bioanalytical Systems, Inc. (BAS). The microdialysis procedure required the insertion through the guide cannula of a thin, needle-like perfusable probe (CMA/12.3 mm x 0.5 mm) to a depth of 3 mm in striatum beyond the end of the guide. The probe was connected beforehand with tubing to a microinjection pump (CMA-/100). Rats were collared and tethered, and, following probe insertion, were placed in a large clear plexiglass bowl with litter material and access to food and water. The probe was perfused at 2 µl/min with Ringer's buffer (NaCl 147 mM; KCI 3.0 mM; CaCl2 1.2 mM; MgCl2 1.0 mM) containing 5.5 mM glucose, 0.2 mM L-ascorbate, and 1 µM neostigmine bromide at pH 7.4. To achieve stable baseline readings, microdialysis was allowed to proceed for 90 minutes prior to the collection of fractions. Fractions (20 µl) were obtained at 10-minute intervals over a 3-hour period using a refrigerated collector (CMA/170 or 200). Following the collection of four to five baseline fractions, the drug or combination of drugs to be tested was administered to the animal. Once collection was complete, each rat was autopsied to determine how accurately the probe was placed. • Acetylcholine (ACh) analysis: The concentration of ACh in collected samples of microdialysate was determined using HPLC/electrochemical detection. Samples were auto-injected (Waters 712 Refrigerated Sample Processor) onto a polymeric analytical HPLC column (BAS, MF-6150) and eluted with 50 mM Na2HPO4, pH 8.5. To prevent bacterial growth, Kathon CG reagent (0.005%) (BAS) was included in the mobile phase. Eluate from the analytical column, containing separated ACh and choline, was then immediately passed through an immobilized enzyme reactor cartridge (BAS, MF-6151) coupled to the column outlet. The reactor contained both acetylcholinesterase and choline oxidase covalently bound to a polymeric backbone. […] Data acquisition was carried out using an IBM Model 70 computer equipped with a microchannel IEEE board. Integration and quantification of peaks were accomplished using \"Maxima\" chromatography software (Waters Corporation). Total run time per sample was 11 minutes at a flow rate of 1 ml/min. Retention times for acetylcholine and choline were 6.5 and 7.8 minutes respectively. To monitor and correct for possible changes in detector sensitivity during chromatography, ACh standards were included at the beginning, middle and end of each sample queue.\nIncreases in ACh levels are consistent with presynaptic m2 receptor antagonism."}}}
{"smiles": "COc1ccc(S(=O)(=O)c2ccc3c(c2)CCC3N2CCN(C3CCCCC3)C[C@H]2C)cc1", "note": "(single isomer, unassigned) [Compound 15]", "values": [{"measurement": "Ki", "setting": "[1]", "result": 1230, "unit": "pM"}, {"measurement": "Ki", "setting": "[2]", "result": 110, "unit": "pM"}, {"measurement": "Ki", "setting": "[3]", "result": 270, "unit": "pM"}, {"measurement": "Mean % of baseline", "setting": "[4]; sample collection time 20 min (control, first baseline, before injection)", "result": "98.61 % of baseline"}, {"measurement": "Mean % of baseline", "setting": "[4]; sample collection time 30 min (control, second baseline, before injection)", "result": "93.87 % of baseline"}, {"measurement": "Mean % of baseline", "setting": "[4]; sample collection time 40 min (control, third baseline, before injection)", "result": "102.42 % of baseline"}, {"measurement": "Mean % of baseline", "setting": "[4]; sample collection time 50 min (compounds injected at 50 minutes)", "result": "103.86 % of baseline"}, {"measurement": "Mean % of baseline", "setting": "[4]; sample collection time 60 min, injected at 50 min", "result": "102.14 % of baseline"}, {"measurement": "Mean % of baseline", "setting": "[4]; sample collection time 70 min, injected at 50 min", "result": "175.31 % of baseline"}, {"measurement": "Mean % of baseline", "setting": "[4]; sample collection time 80 min, injected at 50 min", "result": "278.67 % of baseline"}, {"measurement": "Mean % of baseline", "setting": "[4]; sample collection time 90 min, injected at 50 min", "result": "266.94 % of baseline"}, {"measurement": "Mean % of baseline", "setting": "[4]; sample collection time 100 min, injected at 50 min", "result": "245.19 % of baseline"}, {"measurement": "Mean % of baseline", "setting": "[4]; sample collection time 110 min, injected at 50 min", "result": "217.34 % of baseline"}, {"measurement": "Mean % of baseline", "setting": "[4]; sample collection time 120 min, injected at 50 min", "result": "222.39 % of baseline"}, {"measurement": "Mean % of baseline", "setting": "[4]; sample collection time 130 min, injected at 50 min", "result": "205.69 % of baseline"}, {"measurement": "Mean % of baseline", "setting": "[4]; sample collection time 140 min, injected at 50 min", "result": "188.49 % of baseline"}, {"measurement": "Mean % of baseline", "setting": "[4]; sample collection time 150 min, injected at 50 min", "result": "189.79 % of baseline"}, {"measurement": "Mean % of baseline", "setting": "[4]; sample collection time 160 min, injected at 50 min", "result": "184.27 % of baseline"}, {"measurement": "Mean % of baseline", "setting": "[4]; sample collection time 170 min, injected at 50 min", "result": "189.27 % of baseline"}, {"measurement": "Mean % of baseline", "setting": "[4]; sample collection time 180 min, injected at 50 min", "result": "189.86 % of baseline"}]}
